Legend:
[1] = tested on: pathogenic E.coli 0157; conditions: cited from earlier work
[2] = cited from earlier work
[3] = tested on: Candida albicans IFM40009; assay: Persistence of orally administered Candida microorganism in the intestinal tract of mice (viable cell count in cecum and colon); assay type: in vivo; conditions: mouse, 100 mg/animal oral once a day for two weeks, 1 week after forcible administration of Candida suspension
Description: A Candida microorganism was given forcibly via an oral administration to a mouse on diet with the oligosacchride containing α-galactosyl obtained in EXAMPLE 3 to test the persistence of the Candida microorganism in an intestinal tract, whereby assessing the anti-candida effect of the oligosacchride containing α-galactosyl.
(Methods) A test mouse was a 4-week old male mouse of Crj:CD-1 (ICR) line (NIPPON CHARLES RIVER). A preliminary housing was provided to the animal for 1 week while being allowed to access a basal diet and a distilled water ad libitum. The basal diet was a solid chow for mice (MF: ORIENTAL YEAST). After the preliminary housing, the basal diet and the distilled water were given ad libitum continuously, and a control group fed with a sucrose, a positive control group fed with a raffinose, and a treatment group fed with an oligosacchride containing α-galactosyl were provided (5 animals per group) to conduct a forcible oral administration at 100 mg/animal via an oral gavage for two weeks on a once-a-day basis. […]
The viable cell of the Candida microorganism was counted by applying a Candida microorganism suspension diluted appropriately with a physiological saline onto a Candida GS (EIKEN KAGAKU) plate medium and incubating at 37° C. for 42 to 48 hours followed by counting the colonies formed. […]

[4] = tested on: Candida microorganism; conditions: in vitro and in vivo; cited from earlier work
[5] = molecular target: toxin produced by Clostridium difficile (Clostridioides difficile, UniProt P16154); conditions: cited from earlier work

For OC[C@H]1O[C@H](O[C@@H]2[C@H](O)[C@@H](O)C(O)O[C@@H]2CO)[C@H](O)[C@@H](O)[C@H]1O (stereo partly drawn) [α-1,4 galactobiose], the “effect on pathogenic E.coli 0157” value [1] is given as “inhibitory and therapeutic effect”.
For OC[C@H]1O[C@H](OC[C@H]2O[C@H](O[C@]3(CO)O[C@H](CO)[C@@H](O)[C@@H]3O)[C@H](O)[C@@H](O)[C@@H]2O)[C@H](O)[C@@H](O)[C@H]1O [raffinose], the “effect on atopic dermatitis” value ([2]; in vivo) is given as “exerted an effect”, the “side effects observed with an antifungal agent (transient exacerbation of rash, digestive organ signs)” value ([2]; oral administration) is given as “does not cause side effects” and the “viable cell count of Candida microorganism in the cecum” value [3] is given as “not changed”. For the same molecule, the “viable cell count of Candida microorganism in the colon” value ([3]; compared with sucrose control group) was “lower” and the “effects on a Candida microorganism” value [4] was “inhibitory and eradicative effects”.
In the case of OC[C@H]1O[C@H](O[C@@H]2[C@@H](O)[C@@H](O)O[C@H](CO)[C@@H]2O)[C@H](O)[C@@H](O)[C@H]1O [α-1,3-galactobiose], the “effect on toxin produced by Clostridium difficile” value [5] is listed as “neutralizing effect”.

Source: patent US7491518B2, “Method of elevating yield of oligosaccharides containing α-galactosyl and anti-candida compositions” (Amano Enzyme Inc., priority 2000, dated 2009)
